The values below come from paper PMC3807247 (Journal of the American Chemical Society, 2009).

The test system of experiment [1] is AM2 channel expressed in Xenopus oocytes. To be noted: BL-1743, TEV; cited from earlier work.
The target of experiment [2] is full length Udorn AM2 protein (Influenza A virus, UniProt P0DOF5). The experiment is described as follows: Two-electrode voltage clamp. The format is cell-based, influenza virus A/Udorn/72. The following applies: for AM2 remaing Activity after 100uM inhibition: Table 1, 100 uM inhibitor, pH 5.5, -20 mV; for inhibitory activity against AM2 (in words): tested at 100 μM. (In two-electrode clamp one electrode senses voltage and the other passes current.)

[3] abbreviates: read-out: Activity remaining activity after 100uM inhibition.

The structures appear in SMILES notation. Where two headings read alike, the source gives them in different places.

Sequence of full length Udorn AM2 protein (P0DOF5 whole entry, looked up): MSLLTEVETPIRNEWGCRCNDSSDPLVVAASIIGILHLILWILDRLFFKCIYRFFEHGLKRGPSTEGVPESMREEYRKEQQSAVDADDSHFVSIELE

Regarding `C1CCC2(CC1)CCN(C1=NCCN1)CC2.I` [BL-1743, 3-(4,5-Dihydro-1H-imidazol-2-yl)-3-azaspiro[5,5]undecane Hydroiodide, reference compound], in experiment [1], the “Hill coefficient for inhibition” value was 1.0. The “AM2 remaing Activity after 100uM inhibition” value in experiment [2] (TEV, Xenopus oocytes) is reported as 25%.
For the compound `C1CCC2(CC1)CCN(CC1CC1)CC2` [Compound 1, 3-(Cyclopropylmethyl)-3-azaspiro[5,5]undecane], the “AM2 remaing Activity after 100uM inhibition” value in experiment [2] (TEV, Xenopus oocytes) is on record as 100%.
The same measure, in the same setting: under `C1CCC2(CC1)CCN(CC1CCCC1)CC2` [Compound 2, 3-(Cyclopentylmethyl)-3-azaspiro[5,5]undecane] stands 100%.
In the case of `c1cc(CN2CCC3(CCCCC3)CC2)cs1` [Compound 3, 3-(Thiophen-3-ylmethyl)-3-azaspiro[5,5]undecane], the “AM2 remaing Activity after 100uM inhibition” value in experiment [2] (TEV, Xenopus oocytes) was 90%.
Consider `Cn1cc(CN2CCC3(CCCCC3)CC2)cn1` [Compound 4, 3-((1-Methyl-1H-pyrazol-4-yl)methyl)-3-azaspiro[5,5]undecane], for which, in experiment [2] (TEV, Xenopus oocytes), the “AM2 remaing Activity after 100uM inhibition” value is 100%.
Still for that read-out and setting: under `Cc1cc(CN2CCC3(CCCCC3)CC2)no1` [Compound 5, 3-(3-Azaspiro[5,5]undecan-3-ylmethyl)-5-methylisoxazole] stands 100%; under `c1ccc(CN2CCC3(CCCCC3)CC2)nc1` [Compound 6, 3-(Pyridin-2-ylmethyl)-3-azaspiro[5,5]undecane], 100%.
Consider `c1nc(CN2CCC3(CCCCC3)CC2)c[nH]1` [Compound 7, 3-((1H-Imidazol-4-yl)methyl)-3-azaspiro[5.5]undecane], for which the “AM2 remaing Activity after 100uM inhibition” value in experiment [2] (TEV, Xenopus oocytes) came to 70%. In experiment [2], the “inhibitory activity against AM2 (in words)” value is on record as “moderate inhibition”.
For `c1c[nH]c(CN2CCC3(CCCCC3)CC2)n1` [Compound 8, 3-((1H-Imidazol-2-yl)methyl)-3-azaspiro[5.5]undecane] the same measures were 49% and “moderate inhibition”.
In general, IC50 refers to the concentration that inhibits the measured activity by half. High values mean weaker potency, low ones greater potency. `C1CCC2(CC1)CCNCC2.Cl` [Compound 9, 3-Azaspiro[5,5]undecane Chloride]: the IC50 in experiment [2] (Table 2, TEV, Xenopus oocytes) came to 0.92 ± 0.11 µM. Further, in experiment [2] (ratio of IC50 values), the “increase in potency relative to BL-1743” value is “more than 45 fold”.
Take `CN1CCC2(CCCCC2)CC1.Cl` [Compound 10, 3-Methyl-3-azoniaspiro[5,5]undecane Chloride]: in experiment [2] (ratio of IC50 values), the “decrease in activity relative to spiro-piperidine 9” value is on record as “approximately 20 fold”.
Consider `NC(=O)N1CCC2(CCCCC2)CC1` [Compound 12, 3-Azaspiro[5,5]undecane-3-carboxamide], for which the “inhibitory activity against AM2 (in words)” value in experiment [2] is “not active”.
Same read-out and setting: next, `NC(=S)N1CCC2(CCCCC2)CC1` [Compound 13, 3-Azaspiro[5,5]undecane-3-carbothioamide]: “not active”.
In experiment [2], `C1CCC2(CC1)CCNC2` [Compound 16, 2-Azoniaspiro[4,5]decane Chloride] yielded an IC50 of 12 ± 1.6 µM.
As usually defined, the remaining activity is the signal under treatment as a percentage of the control signal. For the compound `C1COC2(CCNCC2)OC1` [Compound 17, 1,5-Dioxa-9-azaspiro[5,5]undecane], in experiment [2], the half-maximal inhibitory concentration (IC50) is above 100 µM. For the same compound, the remaining activity at 100 µM in experiment [2] (setting [3]) was determined as 100%.
For `C1CSC2(CCNCC2)SC1` [Compound 18, 1,5-Dithia-9-azaspiro[5,5]undecane], the IC50 in experiment [2] was determined as 37.6 ± 2.67 µM. In experiment [2] (setting [3]), the remaining activity at 100 µM was 12%.
As to `CCC1(C)CCNCC1` [Compound 20, 4-Ethyl-4-methylpiperidinium Chloride], in experiment [2] (read-out: AM2 remaining Activity after 100uM inhibition), the remaining activity at 100 µM is 22%.
